{"source": "patent US20050214385A1", "about": "“Chromium/biotin treatment of dyslipidemia and diet-induced post prandial hyperglycemia” (priority 2001, published 2005)", "key": {"[1]": {"tested_on": "human skeletal muscle culture (HSMC)", "experiment": "Glucose uptake in human skeletal muscle culture", "type": "cell-based", "details": "FIG. 2"}, "JCR rat [2]": {"tested_on": "JCR rat", "experiment": "Lipid levels in JCR rats (chromium picolinate + biotin animal study)", "type": "in vivo", "design": "Cholesterol / HDL-ch: unit not given here", "experimental": "In order to test the effects of chromium and biotin, alone and in combination, on insulin sensitivity, a rodent model of “Syndrome X” was employed. Specifically, the JCR rat was utilized as it is a well-established model of obesity and insulin resistance. […] After a baseline phase where accurate weights, body composition, and food intake were assessed, the animals were randomized to either control, CrPic alone, biotin alone, or CrPic/Biotin (See FIG. 5). Animals were weighed weekly and nutrients were given via daily water feeding at a specified dose/kg body weight. A 12-week period of daily treatment of animals was accomplished. […] Specifically, CrPic versus control solutions were given in hyperinsulinemic, insulin-resistant, obese JCR rats. The study was initiated on animals at approximately 4 months of age, and animals were treated specifically for three months. […] 9). […] The improvement in insulin sensitivity was associated with a reduction in total. cholesterol levels compared to lean animals (See, e.g., Table 2, and FIGS. 10 & 11). The effect of the combination of chromium and biotin on lipid levels in the animal study is detailed in Table 2. Specifically, the effect of chromium and biotin on cholesterol levels, high density lipid cholesterol (HDL-ch) levels, and triglyceride levels are recorded in Table 2."}, "JCR rat [3]": {"tested_on": "JCR rat", "experiment": "Insulin tolerance test in obese JCR rats", "type": "in vivo", "details": "FIG. 9", "experimental": "(§1) At specified time points during the study, glucose and insulin assessments were made. Specific assessments of carbohydrate metabolism were determined using an intraperitoneal glucose tolerance test and an insulin tolerance test. Animals were studied at 6 and 12 weeks with randomization. The specific metabolic testing was as follows: Following baseline glucose assessment, insulin (5 units per kg body weight) was given intravenously. Repeat glucose assessments occurred at 5, 15, and 30 minute intervals following insulin administration. The rate of glucose disappearance was measured. Again, eight animals in each group at 12 weeks were studied. […] Specifically, CrPic versus control solutions were given in hyperinsulinemic, insulin-resistant, obese JCR rats. The study was initiated on animals at approximately 4 months of age, and animals were treated specifically for three months. […] 9). […] The improvement in insulin sensitivity was associated with a reduction in total. cholesterol levels compared to lean animals (See, e.g., Table 2, and FIGS. 10 & 11). The effect of the combination of chromium and biotin on lipid levels in the animal study is detailed in Table 2. Specifically, the effect of chromium and biotin on cholesterol levels, high density lipid cholesterol (HDL-ch) levels, and triglyceride levels are recorded in Table 2."}, "JCR rat [4]": {"tested_on": "JCR rat", "experiment": "Fasting plasma insulin in obese JCR rats", "type": "in vivo", "details": "treated three months, end of study, FIG. 7", "experimental": "as §1, with “randomization.” for “randomization. The specific metabolic testing was as follows: Following baseline glucose assessment, insulin (5 units per kg body weight) was given intravenously. Repeat glucose assessments occurred at 5, 15, and 30 minute intervals following insulin administration. The rate of glucose disappearance was measured. Again, eight animals in each group at 12 weeks were studied.”"}, "[5]": {"tested_on": "diabetic and obese pre-diabetic subjects", "details": "cited from earlier work"}, "JCR:LA-corpulent rat": {"tested_on": "JCR:LA-corpulent rat", "details": "obese, hyperinsulinemic, insulin resistant rodent model; cited from earlier work"}, "[6]": {"details": "Month 0, listed as High Chromium"}, "[7]": {"details": "Month 0, listed as Low Chromium"}, "[8]": {"details": "Month 1, listed as High Chromium"}, "[9]": {"details": "Month 1, listed as Low Chromium"}, "[10]": {"details": "Month 2, listed as High Chromium"}, "[11]": {"details": "Month 2, listed as Low Chromium"}, "[12]": {"details": "Month 3, listed as High Chromium"}, "[13]": {"details": "Month 3, listed as Low Chromium"}}, "data": [{"substance": "chromium picolinate [CrPic]", "values": [{"measurement": "glucose uptake", "setting": "[1]", "value": "enhances glucose uptake"}, {"measurement": "Cholesterol", "setting": "JCR rat [2]; [6]", "value": 110}, {"measurement": "HDL-ch", "setting": "JCR rat [2]; [6]", "value": 43.1}, {"measurement": "Triglyceride", "setting": "JCR rat [2]; [6]", "value": 302, "unit": "mg/dL"}, {"measurement": "Cholesterol", "setting": "JCR rat [2]; [7]", "value": 109}, {"measurement": "HDL-ch", "setting": "JCR rat [2]; [7]", "value": 45.9}, {"measurement": "Triglyceride", "setting": "JCR rat [2]; [7]", "value": 319, "unit": "mg/dL"}, {"measurement": "Cholesterol", "setting": "JCR rat [2]; [8]", "value": 112}, {"measurement": "HDL-ch", "setting": "JCR rat [2]; [8]", "value": 43.2}, {"measurement": "Triglyceride", "setting": "JCR rat [2]; [8]", "value": 283, "unit": "mg/dL"}, {"measurement": "Cholesterol", "setting": "JCR rat [2]; [9]", "value": 93}, {"measurement": "HDL-ch", "setting": "JCR rat [2]; [9]", "value": 38.6}, {"measurement": "Triglyceride", "setting": "JCR rat [2]; [9]", "value": 267, "unit": "mg/dL"}, {"measurement": "Cholesterol", "setting": "JCR rat [2]; [10]", "value": 120}, {"measurement": "HDL-ch", "setting": "JCR rat [2]; [10]", "value": 51.5}, {"measurement": "Triglyceride", "setting": "JCR rat [2]; [10]", "value": 221, "unit": "mg/dL"}, {"measurement": "Cholesterol", "setting": "JCR rat [2]; [11]", "value": 130}, {"measurement": "HDL-ch", "setting": "JCR rat [2]; [11]", "value": 43.4}, {"measurement": "Triglyceride", "setting": "JCR rat [2]; [11]", "value": 256, "unit": "mg/dL"}, {"measurement": "Cholesterol", "setting": "JCR rat [2]; [12]", "value": 122}, {"measurement": "HDL-ch", "setting": "JCR rat [2]; [12]", "value": 48.1}, {"measurement": "Triglyceride", "setting": "JCR rat [2]; [12]", "value": 174, "unit": "mg/dL"}, {"measurement": "Cholesterol", "setting": "JCR rat [2]; [13]", "value": 137}, {"measurement": "HDL-ch", "setting": "JCR rat [2]; [13]", "value": 45.9}, {"measurement": "Triglyceride", "setting": "JCR rat [2]; [13]", "value": 242, "unit": "mg/dL"}, {"measurement": "total cholesterol levels", "setting": "JCR rat [2]; obese JCR rats, FIGS. 10 & 11", "value": "reduction"}, {"measurement": "Insulin sensitivity, insulin tolerance test", "setting": "JCR rat [3]", "value": "significantly improved"}, {"measurement": "fasting plasma insulin", "setting": "JCR rat [4]", "value": "significantly lower fasting plasma insulin"}, {"measurement": "glucose levels", "setting": "[5]; Chinese diabetics", "value": "significantly lowered"}, {"measurement": "insulin levels", "setting": "[5]; Chinese diabetics", "value": "significantly lowered"}, {"measurement": "insulin sensitivity", "setting": "[5]; obese, pre-diabetic subjects, 1000 μg per day", "value": "enhance insulin sensitivity"}, {"measurement": "insulin sensitivity", "setting": "JCR:LA-corpulent rat", "value": "very robust effect on improving"}, {"measurement": "lipid profiles", "setting": "JCR:LA-corpulent rat", "value": "very robust effect on improving"}]}]}
